{"source": "patent US20060004207A1", "about": "“Preparation of new pharmaceutically suitable salt of losartan and forms thereof with new purification and isolation methods” (priority 2003, published 2006)", "key": {"[1]": {"test": "Solubility of crystalline forms of losartan potassium"}, "[2]": {"test": "Rate of dissolution of the substance, 75 mg in 50 ml 0.1 M HCl", "type": "physicochemical"}, "[3]": {"conditions": "for Loss of weight: ~10 mBar", "procedure": "The sample was exposed to temperatures between 60° C. and 80° C. and negative pressure ˜10 mBar."}, "[4]": {"test": "Stability test, amorphous versus form with bound water, 4 days in air at 60/80° C., dry or moist", "type": "physicochemical", "conditions": "for Physical form when exposed to moisture: 4 days", "procedure": "For evaluation and comparison, respectively, of the stability, four tests were conducted."}, "[5]": {"test": "Dynamic vapour sorption (DVS)", "type": "physicochemical", "procedure": "Measurements were performed on instrument DVS—The Sorption Solution, Surface Measurement Systems Ltd. UK.\nThe principle of measurement is as follows: The sample measured is placed on one side of a very precise scale, a reference non-hydroscopic sample having been placed on the other side. The scale is located in an isolated chamber in which the relative humidity can be set. The hydroscopic sample being measured binds moisture from the environment, and an increase of mass is detected.\nThe ordinate axis represents the change of mass, abscise representing the humidity."}, "[6]": {"conditions": "10 g exposed to heat while dried", "procedure": "Temperature stability of the sample of polymorph Form Y was tested by exposing 10 g polymorph Form Y potassium salt of -n-butyl-4-chloro-5-hydroxymethyl-1-[[2′-(1H-tetrazol-5-yl)[1,1′-biphenyl]-4-yl]methyl]-1H-imidazole to heat while dried."}}, "note": "Like-named read-outs stand apart in the source and are kept apart here."}
{"smiles": "CCCCc1nc(Cl)c(CO)n1Cc1ccc(-c2ccccc2-c2nnn[n-]2)cc1.[K+]", "note": "[LST-K-1481, potassium salt of 2-n-butyl-4-chloro-5-hydroxymethyl-1-[[2′-(1H-tetrazol-5-yl)[1,1′-biphenyl]-4-yl]methyl]-1H-imidazole]", "values": [{"measurement": "SOLUBILITY in 0.1 M HCl", "setting": "[1]; in 0.1 M HCl", "result": 1.74, "unit": "mg/mL"}, {"measurement": "RATE OF DISSOLUTION", "setting": "[2]", "result": 14, "unit": "min"}]}
{"smiles": "CCCCc1nc(Cl)c(CO)n1Cc1ccc(-c2ccccc2-c2nn[nH]n2)cc1", "note": "[Form I, losartan potassium, reference compound]", "values": [{"measurement": "solubility", "setting": "[1]; 0.1 M HCl, simulated gastric fluid", "result": 1.52, "unit": "mg/mL"}, {"measurement": "solubility", "setting": "[1]; water", "result": 630, "unit": "mg/mL"}, {"measurement": "RATE OF DISSOLUTION", "setting": "[2]", "result": 16, "unit": "min"}]}
{"smiles": "CCCCc1nc(Cl)c(CO)n1Cc1ccc(-c2ccccc2-c2nnn[n-]2)cc1.[K+]", "note": "[LST-K-3279, potassium salt of 2-n-butyl-4-chloro-5-hydroxymethyl-1-[[2′-(1H-tetrazol-5-yl)[1,1′-biphenyl]-4-yl]methyl]-1H-imidazole]", "values": [{"measurement": "Polymorphic form after storage", "setting": "[3]; 45-day storage in a closed flask at room temperature", "result": "did not change its polymorphic forms"}, {"measurement": "Loss of weight", "setting": "[3]; 60° C.", "result": 0.79, "unit": "%"}, {"measurement": "Loss of weight", "setting": "[3]; 80° C.", "result": 0.90, "unit": "%"}, {"measurement": "Crystalline structure after heat and negative pressure", "setting": "[3]; between 60° C. and 80° C., negative pressure ~10 mBar", "result": "did not change under any of the conditions"}]}
{"smiles": "CCCCc1nc(Cl)c(CO)n1Cc1ccc(-c2ccccc2-c2nnn[n-]2)cc1.[K+]", "note": "[LST-K-1496/1, potassium salt of 2-n-butyl-4-chloro-5-hydroxymethyl-1-[[2′-(1H-tetrazol-5-yl)[1,1′-biphenyl]-4-yl]methyl]-1H-imidazole]", "values": [{"measurement": "RATE OF DISSOLUTION", "setting": "[2]", "result": 13, "unit": "min"}]}
{"smiles": "CCCCc1nc(Cl)c(CO)n1Cc1ccc(-c2ccccc2-c2nn[nH]n2)cc1", "note": "[amorphous losartan potassium, losartan potassium]", "values": [{"measurement": "Hygroscopicity (comparison)", "setting": "[4]", "result": "essentially more hygroscopic than the form with bound water of losartan potassium"}, {"measurement": "Physical form when exposed to moisture", "setting": "[4]", "result": "merged into a glassy mass and then white crystals of form with bound water were formed"}, {"measurement": "Water content at repeated sorption, at which point the amorphous sample crystallizes", "setting": "[5]; at 60% relative humidity", "result": "approximately 13%"}, {"measurement": "Weight increase", "setting": "[5]; at 70-80% relative humidity", "result": "20-26%"}, {"measurement": "Absorption of water (increase of mass)", "setting": "[5]; at 80% relative humidity, first sorption", "result": 25, "unit": "%"}]}
{"smiles": "CCCCc1nc(Cl)c(CO)n1Cc1ccc(-c2ccccc2-c2nn[nH]n2)cc1", "note": "[Milled sample of Form I, losartan potassium, reference compound]", "values": [{"measurement": "RATE OF DISSOLUTION", "setting": "[2]", "result": 8, "unit": "min"}]}
{"smiles": "CCCCc1nc(Cl)c(CO)n1Cc1ccc(-c2ccccc2-c2nnn[n-]2)cc1.[K+]", "note": "[polymorph Form Y, potassium salt of 2-n-butyl-4-chloro-5-hydroxymethyl-1-[[2′-(1H-tetrazol-5-yl)[1.1′-biphenyl]-4-yl]methyl]-1H-imidazole]", "values": [{"measurement": "Polymorph form after exposure to heat while dried", "setting": "[6]", "result": "Polymorph Form X was obtained"}]}
{"smiles": "CCCCc1nc(Cl)c(CO)n1Cc1ccc(-c2ccccc2-c2nnn[n-]2)cc1.[K+]", "note": "[crystalline form with bound water, losartan potassium]", "values": [{"measurement": "Stability to temperature and moisture", "setting": "[4]; 4 days in air, 60° C. or 80° C., dry atmosphere or moisture", "result": "at least as stable as amorphous"}, {"measurement": "Physical form when exposed to moisture", "setting": "[4]", "result": "maintained the powdered form"}, {"measurement": "Content of water in sample after crystallization", "setting": "[5]; after crystallization at 80% relative humidity", "result": "approximately 13%"}, {"measurement": "Relative humidity at which bound water is lost and the sample transforms into amorphous form", "setting": "[5]; decreasing relative humidity", "result": "below 20%"}, {"measurement": "Solubility (comparison in words)", "setting": "[1]; in water", "result": "less soluble than known Form I, or amorphous losartan potassium"}]}
